Calls of active or inactive are those of the source.
How the values were obtained:
[1] = biological target: T1, Fatty acid synthase (Homo sapiens, UniProt P49327); assay: inhibition of human FAS-TE enzyme activity – biochemical, kinetic fluorescence intensity, dose response (AID 624326); type: functional;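 also: rate of fluorescence rise from hydrolysis of a fluorogenic O-methyl fluorescein ester substrate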
[2] = biological target: T1, Fatty acid synthase; assay: inhibition of human FAS-TE enzyme activity – biochemical, endpoint fluorescence intensity, uHTS hits, dose response (AID 624327); type: functional;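 also: fluorescence from hydrolysis of an O-methyl fluorescein acyl ester substrate by the enzyme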
[3] = intracellular Trypanosoma cruzi inhibitors in host cells – cell-based, plate reader, cherry-pick samples, set 3, dose response (AID 651818); type: functional;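 also: compounds incubated with infected cells for about four days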
[4] = biological target: DNA dC->dU-editing enzyme APOBEC-3G (Homo sapiens, UniProt Q9HC16); assay: Dose Response confirmation of small molecule APOBEC3G DNA Deaminase Inhibitors via a fluorescence-based single-stranded DNA deaminase assay. [Related pubchem assays (depositor defined):AID493012, AID493028]; type: functional
Sequence of DNA dC->dU-editing enzyme APOBEC-3G (Q9HC16 whole entry): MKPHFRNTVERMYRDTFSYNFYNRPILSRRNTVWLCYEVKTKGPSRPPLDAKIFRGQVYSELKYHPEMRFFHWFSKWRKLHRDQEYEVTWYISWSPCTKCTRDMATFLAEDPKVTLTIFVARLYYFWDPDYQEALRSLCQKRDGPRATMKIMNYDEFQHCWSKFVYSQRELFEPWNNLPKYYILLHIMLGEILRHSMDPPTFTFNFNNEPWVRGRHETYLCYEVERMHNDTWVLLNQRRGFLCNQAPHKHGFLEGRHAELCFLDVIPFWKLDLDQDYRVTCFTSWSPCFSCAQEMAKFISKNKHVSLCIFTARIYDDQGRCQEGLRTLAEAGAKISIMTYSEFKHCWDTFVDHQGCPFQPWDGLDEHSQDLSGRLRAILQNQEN

[5] = Trypanosoma cruzi growth suppression in host cells – NIH3T3 host cells, beta-gal luminescence, confirmation (AID 2044); type: functional, cell-based;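 also: intracellular parasites grown in NIH/3T3 mouse fibroblasts as host cells; luminescent beta-galactosidase reporter signal from transgenic T. cruzi replicating inside host cells; inhibitors lower the luminescence signal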
[6] = NIH3T3 cell viability loss – ATP luminescence, mouse fibroblasts, counter-screen, dose response (AID 2010); type: functional, cell-based;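 also: cells exposed to compound for about 90 hours before reading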
[7] = P. falciparum Dd2 growth inhibitors, dose response, SYBR Green, cherry-picked samples (AID 1159567); type: functional, cell-based
[8] = growth inhibition of PfATP4-mutant resistant parasites – NITD609-resistant line, SYBR Green, dry powder, dose response (AID 1159571); type: functional, cell-based;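 also: parasites synchronized at ring stage by sorbitol before testing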
[9] = growth inhibition of yeast DHODH-expressing 3D7 parasites – SYBR Green, dry powder samples, dose response (AID 1159570); type: functional, cell-based;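 also: parasite growth measured after 72 hours of compound exposure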
[10] = Dd2 malaria parasite growth inhibition potency – SYBR Green, dry powder samples, dose response (AID 1159566); type: functional, cell-based;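 also: potency for growth inhibition with lower SYBR green DNA signal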
[11] = biological target: T2, Rac GTPase-activating protein 1 (Homo sapiens, UniProt Q9H0H5); assay: blockers of MgcRacGAP-driven Rac1 GTP hydrolysis – biochemical, ADP Hunter fluorescence, primary and confirmatory, confirmation (AID 624330); type: functional
T2 sequence (Q9H0H5 whole entry): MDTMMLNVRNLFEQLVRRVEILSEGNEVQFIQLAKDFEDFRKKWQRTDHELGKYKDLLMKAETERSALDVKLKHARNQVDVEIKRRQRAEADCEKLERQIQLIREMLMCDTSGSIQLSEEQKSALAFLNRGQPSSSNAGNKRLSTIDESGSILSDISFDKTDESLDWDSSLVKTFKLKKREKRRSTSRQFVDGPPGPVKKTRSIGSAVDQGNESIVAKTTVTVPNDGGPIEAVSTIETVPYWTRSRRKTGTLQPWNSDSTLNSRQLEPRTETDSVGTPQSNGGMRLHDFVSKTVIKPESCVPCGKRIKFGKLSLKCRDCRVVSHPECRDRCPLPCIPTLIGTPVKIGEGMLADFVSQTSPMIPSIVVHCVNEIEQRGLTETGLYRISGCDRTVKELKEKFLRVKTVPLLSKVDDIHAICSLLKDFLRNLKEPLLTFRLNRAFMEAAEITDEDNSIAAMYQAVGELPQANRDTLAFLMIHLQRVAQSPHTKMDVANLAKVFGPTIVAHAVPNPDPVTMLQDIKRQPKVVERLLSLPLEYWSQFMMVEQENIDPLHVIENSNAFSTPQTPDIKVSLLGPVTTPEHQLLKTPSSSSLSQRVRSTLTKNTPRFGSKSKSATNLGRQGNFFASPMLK

[12] = viability loss in HeLa cells – cytotoxicity control for MgcRacGAP inhibitor project, dose response (AID 624300); type: functional
[13] = system: Vero; assay: cells; type: functional, cell-based; details: Chlorocebus sabaeus
[14] = system: Vero; assay: cells; type: functional; details: Chlorocebus sabaeus
[15] = biological target: Glyceraldehyde-3-phosphate dehydrogenase (Homo sapiens, UniProt P04406)
Sequence of Glyceraldehyde-3-phosphate dehydrogenase (P04406 whole entry): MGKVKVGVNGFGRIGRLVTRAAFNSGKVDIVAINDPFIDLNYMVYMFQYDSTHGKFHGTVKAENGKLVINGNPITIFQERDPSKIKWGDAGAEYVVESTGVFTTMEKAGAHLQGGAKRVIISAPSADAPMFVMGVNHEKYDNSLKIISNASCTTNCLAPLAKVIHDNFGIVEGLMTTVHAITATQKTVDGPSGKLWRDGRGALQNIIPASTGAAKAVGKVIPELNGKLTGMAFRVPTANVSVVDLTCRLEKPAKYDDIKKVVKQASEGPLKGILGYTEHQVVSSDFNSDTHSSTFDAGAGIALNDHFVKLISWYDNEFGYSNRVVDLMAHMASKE

[16] = biological target: T3, Protein RecA (Mycobacterium tuberculosis, UniProt P9WHJ3); assay: Fluorescence Cell-Free Homogeneous Dose Retest to Identify Inhibitors of RecA-Intein Splicing Activity. [Related pubchem assays (depositor defined):AID2097, AID2223, AID489010, AID492950]; type: functional
T3 sequence (P9WHJ3 whole entry): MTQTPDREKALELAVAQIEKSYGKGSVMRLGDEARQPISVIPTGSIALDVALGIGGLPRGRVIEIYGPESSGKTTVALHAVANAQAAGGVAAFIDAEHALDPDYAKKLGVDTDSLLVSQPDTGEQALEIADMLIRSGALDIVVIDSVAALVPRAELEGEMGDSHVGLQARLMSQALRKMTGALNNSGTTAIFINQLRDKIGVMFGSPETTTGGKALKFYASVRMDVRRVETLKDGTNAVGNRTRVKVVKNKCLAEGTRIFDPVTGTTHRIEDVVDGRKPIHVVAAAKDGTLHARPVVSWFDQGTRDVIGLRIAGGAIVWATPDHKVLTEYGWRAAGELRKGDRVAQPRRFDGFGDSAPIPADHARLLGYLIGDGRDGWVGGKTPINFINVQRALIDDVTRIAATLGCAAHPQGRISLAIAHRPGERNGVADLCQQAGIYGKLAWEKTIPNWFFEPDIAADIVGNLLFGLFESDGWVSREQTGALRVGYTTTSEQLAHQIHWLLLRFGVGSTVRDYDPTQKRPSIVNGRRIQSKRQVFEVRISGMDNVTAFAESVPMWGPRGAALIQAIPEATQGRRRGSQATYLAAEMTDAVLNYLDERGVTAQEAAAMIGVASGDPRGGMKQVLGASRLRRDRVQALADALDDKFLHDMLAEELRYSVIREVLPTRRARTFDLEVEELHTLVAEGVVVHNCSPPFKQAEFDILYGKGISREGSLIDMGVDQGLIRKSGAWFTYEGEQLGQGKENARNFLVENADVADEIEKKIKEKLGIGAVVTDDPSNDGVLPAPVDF

[17] = biological target: T4, Replicative DNA helicase DnaB (Mycobacterium tuberculosis, UniProt P9WMR3); assay: DnaB intein splicing inhibitors, dose response, biochemical, cell-free fluorescence (AID 449749); type: functional
T4 sequence (P9WMR3 whole entry): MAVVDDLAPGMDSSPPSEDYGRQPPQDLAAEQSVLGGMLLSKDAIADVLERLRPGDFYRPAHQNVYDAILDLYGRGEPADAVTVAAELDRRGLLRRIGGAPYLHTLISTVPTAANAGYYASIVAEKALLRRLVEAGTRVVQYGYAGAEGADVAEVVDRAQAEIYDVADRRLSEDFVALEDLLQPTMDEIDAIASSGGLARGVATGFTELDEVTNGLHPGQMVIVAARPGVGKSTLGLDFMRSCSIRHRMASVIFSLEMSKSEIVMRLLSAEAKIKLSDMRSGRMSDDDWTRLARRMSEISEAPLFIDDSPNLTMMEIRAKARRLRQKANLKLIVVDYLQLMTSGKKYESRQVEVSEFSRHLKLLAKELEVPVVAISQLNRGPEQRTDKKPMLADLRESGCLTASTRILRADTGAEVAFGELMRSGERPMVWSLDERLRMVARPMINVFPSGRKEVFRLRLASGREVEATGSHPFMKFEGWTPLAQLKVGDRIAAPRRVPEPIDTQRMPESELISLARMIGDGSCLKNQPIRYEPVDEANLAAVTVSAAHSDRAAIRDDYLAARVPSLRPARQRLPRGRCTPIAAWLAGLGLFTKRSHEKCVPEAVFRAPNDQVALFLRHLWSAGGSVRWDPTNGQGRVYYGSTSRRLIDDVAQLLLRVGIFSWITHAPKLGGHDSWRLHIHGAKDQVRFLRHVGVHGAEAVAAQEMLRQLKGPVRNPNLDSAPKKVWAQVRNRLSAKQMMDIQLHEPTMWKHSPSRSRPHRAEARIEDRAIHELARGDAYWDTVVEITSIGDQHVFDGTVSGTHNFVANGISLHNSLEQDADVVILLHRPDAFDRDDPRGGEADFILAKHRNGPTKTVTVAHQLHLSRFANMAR

[18] = biological target: Genome polyprotein (dengue virus type 2, UniProt P29990); assay: flavivirus cap methylation enzyme inhibition – biochemical, confirmation dose response, primary screen (AID 588689); type: functional
Sequence of Genome polyprotein (P29990 2492-3391 limits assumed): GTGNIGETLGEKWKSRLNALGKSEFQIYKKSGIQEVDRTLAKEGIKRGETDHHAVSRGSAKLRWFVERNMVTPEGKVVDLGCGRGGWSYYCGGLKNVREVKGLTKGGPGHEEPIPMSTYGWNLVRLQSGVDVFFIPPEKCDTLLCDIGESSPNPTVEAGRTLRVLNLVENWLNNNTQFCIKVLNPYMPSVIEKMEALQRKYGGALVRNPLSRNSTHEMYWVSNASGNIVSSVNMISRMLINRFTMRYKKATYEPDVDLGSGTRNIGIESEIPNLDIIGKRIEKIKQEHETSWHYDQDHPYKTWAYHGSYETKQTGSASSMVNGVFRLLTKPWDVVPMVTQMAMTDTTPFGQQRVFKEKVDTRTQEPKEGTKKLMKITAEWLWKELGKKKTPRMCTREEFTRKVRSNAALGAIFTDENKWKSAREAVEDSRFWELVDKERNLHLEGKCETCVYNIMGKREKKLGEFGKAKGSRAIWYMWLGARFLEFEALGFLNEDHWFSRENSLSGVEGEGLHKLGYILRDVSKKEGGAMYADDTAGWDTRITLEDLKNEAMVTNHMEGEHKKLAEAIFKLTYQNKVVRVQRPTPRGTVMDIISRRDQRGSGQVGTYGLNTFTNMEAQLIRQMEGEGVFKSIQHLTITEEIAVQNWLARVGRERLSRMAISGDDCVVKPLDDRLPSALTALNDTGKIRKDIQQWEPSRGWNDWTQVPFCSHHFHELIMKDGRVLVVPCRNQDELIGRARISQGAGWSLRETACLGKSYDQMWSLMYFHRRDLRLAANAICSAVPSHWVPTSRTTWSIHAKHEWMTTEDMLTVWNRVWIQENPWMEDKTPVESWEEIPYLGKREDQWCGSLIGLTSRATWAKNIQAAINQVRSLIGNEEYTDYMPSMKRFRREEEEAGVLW

T1 sequence (P49327 whole entry): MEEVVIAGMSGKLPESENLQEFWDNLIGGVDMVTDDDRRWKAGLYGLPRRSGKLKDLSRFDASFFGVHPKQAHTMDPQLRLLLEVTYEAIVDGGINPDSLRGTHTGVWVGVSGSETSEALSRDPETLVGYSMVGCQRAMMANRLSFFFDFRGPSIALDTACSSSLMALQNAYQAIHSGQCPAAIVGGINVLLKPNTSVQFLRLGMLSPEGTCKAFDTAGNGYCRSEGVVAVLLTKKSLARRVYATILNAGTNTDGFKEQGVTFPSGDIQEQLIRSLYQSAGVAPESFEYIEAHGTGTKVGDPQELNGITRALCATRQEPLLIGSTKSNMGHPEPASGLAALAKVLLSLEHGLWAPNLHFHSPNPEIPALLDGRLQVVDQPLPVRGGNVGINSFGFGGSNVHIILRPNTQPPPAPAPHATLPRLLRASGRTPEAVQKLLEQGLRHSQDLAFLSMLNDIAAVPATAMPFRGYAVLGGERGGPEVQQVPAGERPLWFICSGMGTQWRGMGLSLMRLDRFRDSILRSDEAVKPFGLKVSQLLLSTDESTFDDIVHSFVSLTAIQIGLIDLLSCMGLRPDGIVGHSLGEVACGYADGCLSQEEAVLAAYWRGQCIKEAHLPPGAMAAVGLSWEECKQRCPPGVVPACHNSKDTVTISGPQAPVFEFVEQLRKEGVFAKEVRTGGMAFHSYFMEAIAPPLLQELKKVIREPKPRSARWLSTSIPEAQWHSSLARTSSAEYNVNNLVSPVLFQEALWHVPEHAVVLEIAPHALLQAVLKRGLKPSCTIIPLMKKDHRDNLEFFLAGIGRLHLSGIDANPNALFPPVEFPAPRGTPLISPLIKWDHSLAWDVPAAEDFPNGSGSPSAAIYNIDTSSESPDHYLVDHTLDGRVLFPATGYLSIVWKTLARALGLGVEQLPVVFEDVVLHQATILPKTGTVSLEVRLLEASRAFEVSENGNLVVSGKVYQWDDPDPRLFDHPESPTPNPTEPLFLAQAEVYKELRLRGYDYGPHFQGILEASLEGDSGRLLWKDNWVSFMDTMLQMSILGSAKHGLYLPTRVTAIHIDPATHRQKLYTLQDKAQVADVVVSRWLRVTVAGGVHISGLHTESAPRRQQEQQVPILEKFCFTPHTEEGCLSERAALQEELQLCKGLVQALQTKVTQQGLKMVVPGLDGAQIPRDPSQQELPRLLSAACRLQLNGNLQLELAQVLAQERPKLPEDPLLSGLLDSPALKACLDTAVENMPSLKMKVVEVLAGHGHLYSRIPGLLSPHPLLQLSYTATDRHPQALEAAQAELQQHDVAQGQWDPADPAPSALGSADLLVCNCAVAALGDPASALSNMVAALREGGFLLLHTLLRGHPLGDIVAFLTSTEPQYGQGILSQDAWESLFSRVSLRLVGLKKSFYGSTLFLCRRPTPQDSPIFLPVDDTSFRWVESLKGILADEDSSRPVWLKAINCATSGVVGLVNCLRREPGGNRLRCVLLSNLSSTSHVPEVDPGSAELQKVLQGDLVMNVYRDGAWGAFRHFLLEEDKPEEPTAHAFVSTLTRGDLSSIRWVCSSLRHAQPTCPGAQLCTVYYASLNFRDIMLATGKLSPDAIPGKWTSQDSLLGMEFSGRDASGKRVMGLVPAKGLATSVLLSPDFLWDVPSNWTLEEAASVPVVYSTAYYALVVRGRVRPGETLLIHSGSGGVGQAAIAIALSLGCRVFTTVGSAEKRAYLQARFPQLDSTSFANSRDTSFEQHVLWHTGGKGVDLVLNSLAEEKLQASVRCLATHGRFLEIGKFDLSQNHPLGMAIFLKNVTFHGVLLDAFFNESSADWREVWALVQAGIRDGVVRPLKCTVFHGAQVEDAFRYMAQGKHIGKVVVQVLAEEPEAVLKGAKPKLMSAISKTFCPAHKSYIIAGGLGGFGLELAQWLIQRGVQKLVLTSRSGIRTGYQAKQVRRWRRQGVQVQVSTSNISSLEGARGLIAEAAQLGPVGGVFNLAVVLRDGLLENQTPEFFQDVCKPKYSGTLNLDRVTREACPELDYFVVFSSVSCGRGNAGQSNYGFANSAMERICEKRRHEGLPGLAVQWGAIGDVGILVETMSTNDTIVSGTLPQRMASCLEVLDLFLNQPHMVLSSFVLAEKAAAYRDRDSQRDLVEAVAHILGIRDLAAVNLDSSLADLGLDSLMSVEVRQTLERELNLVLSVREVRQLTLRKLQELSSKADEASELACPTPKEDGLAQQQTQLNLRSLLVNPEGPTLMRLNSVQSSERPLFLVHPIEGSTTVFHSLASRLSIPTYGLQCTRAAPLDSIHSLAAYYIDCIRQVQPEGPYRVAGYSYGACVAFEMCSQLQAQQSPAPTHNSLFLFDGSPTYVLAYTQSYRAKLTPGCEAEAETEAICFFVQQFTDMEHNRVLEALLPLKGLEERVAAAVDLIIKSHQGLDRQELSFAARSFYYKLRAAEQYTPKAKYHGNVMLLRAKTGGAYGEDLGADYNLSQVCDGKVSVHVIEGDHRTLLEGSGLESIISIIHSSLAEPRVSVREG

Cc1ccc(C(=O)O/N=C(\N)Cc2cccs2)cc1[N+](=O)[O-]
IC50 [1]: 8.33 µM (active) | IC50 [2]: 9.57 µM (active)

C[C@H]1CN([C@@H](C)CO)C(=O)c2cc(NS(=O)(=O)c3ccc(F)cc3)ccc2O[C@@H]1CN(C)Cc1ccc(Cl)c(Cl)c1
AC50 [3]: 4.6 µM (active)

O=C(CN(CC(=O)N1CCOCC1)S(=O)(=O)c1ccc(Br)s1)N1CCOCC1
IC50 [4]: 74.3 µM (active)

COc1ccc(-n2c(SCC(=O)C(C)(C)C)nc3c(sc(=S)n3-c3ccccc3)c2=O)c(OC)c1
EC50 [5]: 0.714 µM (active) | EC50 [6]: > 60 µM (not active) | IC50 [4]: 66.5 µM (active)

C[C@@H]1CN([C@@H](C)CO)C(=O)c2cccc(NC(=O)c3nc4ccccc4s3)c2O[C@H]1CN(C)C(=O)NC1CCCCC1
AC50 [7]: 1.37 µM (active) | AC50 [8]: 1.05 µM (active) | AC50 [9]: 0.846 µM (active) | AC50 [10]: 1.08 µM (active)

C[C@@H]1CN([C@H](C)CO)C(=O)Cc2cc(NC(=O)NC3CCCCC3)ccc2O[C@H]1CN(C)Cc1ccc(Oc2ccccc2)cc1
AC50 [3]: 3.58 µM (active)

c1ccc2c(c1)Nc1ccncc1S2
IC50 [11]: 269 µM (active) | CC50 [12]: 100 µM (active)

CCc1c(C(=O)NC2CCCc3ccccc32)[nH]c(C)c1C(C)=O (stereo unspecified)
IC50 [13]: 9.95 µM (active) | CC50 [14]: > 25 µM (active)

O=C(CSc1ncnc2c1cnn2-c1ccccc1)NC1CCCC1
IC50 [1]: 5.67 µM (active) | IC50 [2]: 5.94 µM (active)

C[C@H](CO)N1C[C@H](C)[C@@H](CN(C)Cc2ccncc2)Oc2c(NC(=O)Nc3ccc(C(F)(F)F)cc3)cccc2C1=O
AC50 [3]: 2.97 µM (active)

O=C1C(Cl)=C(N2CCN(Cc3ccccc3)CC2)C(=O)N1c1ccc(Cl)nc1
IC50 [15]: > 50 µM (inconclusive)

C[C@H](CO)N1C[C@H](C)[C@H](CN(C)CC2CC2)Oc2ccc(NC(=O)Nc3ccccc3)cc2CC1=O
AC50 [7]: 2.08 µM (active) | AC50 [8]: 4.64 µM (active) | AC50 [9]: 3.81 µM (active) | AC50 [10]: 3.39 µM (active)

C[C@@H]1CCCCO[C@H](CN(C)C(=O)C2CCCCC2)[C@@H](C)CN([C@H](C)CO)C(=O)c2cc(NC(=O)Nc3ccc(C(F)(F)F)cc3)ccc2O1
AC50 [3]: 6.88 µM (active)

COc1ccc(S(=O)(=O)Nc2cccc3c2O[C@@H](CN(C)Cc2ccc(C(=O)Nc4ccccc4N)cc2)[C@H](C)CN([C@@H](C)CO)C3=O)cc1
AC50 [3]: 3.61 µM (active)

O=C(COC(=O)c1cc([N+](=O)[O-])ccc1Cl)NCCc1ccccc1
IC50 [1]: 5.26 µM (active) | IC50 [2]: 3.93 µM (active)

Cc1oc2c(c1C(=O)Nc1cccc(C(=O)O)c1)CCCC2
IC50 [15]: > 100 µM (not active)

CC1CCCN(CCOc2ccc3ccccc3c2Br)C1 (stereo unspecified)
IC50 [11]: 142 µM (active) | CC50 [12]: 68.9 µM (active)

O=C(O)CN1C(=O)/C(=C\c2cccc(OCc3ccc(Cl)cc3Cl)c2)SC1=S
EC50 [16]: 11.1 µM (active) | AC50 [17]: 2.73 µM (active) | IC50 [18]: 36 µM (active)

Cc1ccc2oc(=O)c3cnn(CC(=O)Nc4ccccc4N4CCN(C)CC4)c3c2c1
IC50 [13]: 9.16 µM (active)

CN(C)C=O.O=C(O)c1ccccc1NS(=O)(=O)c1ccc(NN=Cc2ccc(F)cc2)c([N+](=O)[O-])c1
IC50 [1]: 4.43 µM (active) | IC50 [2]: 7.9 µM (active)

C[C@H]1CN([C@@H](C)CO)C(=O)c2c(c3ccccc3n2C)-c2ccccc2CO[C@@H]1CN(C)C(=O)Nc1ccc(-c2ccccc2)cc1
AC50 [7]: 1.38 µM (active) | AC50 [8]: 0.532 µM (active) | AC50 [9]: 0.787 µM (active) | AC50 [10]: 0.507 µM (active)

— ChEMBL document CHEMBL1201862, “PubChem BioAssay data set” (2004)
